Measurements reported in PMC9127750, “Structure-based design of CDC42 effector interaction inhibitors for the treatment of cancer” (Cell reports, 2022).
Several values for one entry are separate records, joined by “and”; a condition that tells them apart may be missing. Equal values may be shown once.

Tested on: WM3248 melanoma cells, 486 antibodies
Assay: Reverse phase protein arrays (RPPA)
Format: cell-based, Human
Text: Pellets were snap frozen in liquid nitrogen and shipped to MD Anderson Cancer Center core RPPA facility for RPPA analysis (Table S5). Three biological replicates for each sample were generated.
Nomenclatures on the RPPA heatmaps: name_of_antibody.species_of_antibody.status_of_antibody. V - antibody validated; C - validation of antibody in progress; Q - antibody nonspecific; E – under evaluation; antibodies raised in M - mouse, G - goat, R - rabbit, or T - rat.

[1] = Norm_20: replicates 1-3 and Average, relative to 0
[2] = Norm_20, replicates 1-3 and Average, relative to Norm_0

CN(C)c1cccc(Nc2cc(-c3ccccc3)nc(C3CCNCC3)n2)c1 [ARN22089, N1,N1-dimethyl-N3-(6-phenyl-2-(piperidin-4-yl)pyrimidin-4-yl)benzene-1,3-diamine]
Shc_pY317.R.C normalized RPPA signal [1]: 0.757 and 1.584 and 1.301 and 1.214
Slfn11.G.C normalized RPPA signal [1]: 1.108 and 1.363 and 1.188
Smac.M.Q normalized RPPA signal [1]: 0.931 and 0.960 and 0.983 and 0.958
Smad1.R.V normalized RPPA signal [1]: 0.987 and 0.977 and 1.047 and 1.004
Smad3.R.V normalized RPPA signal [1]: 1.165 and 1.119 and 1.154
Smad4.R.V normalized RPPA signal [1]: 1.296 and 1.077 and 0.835
Snail.M.Q normalized RPPA signal [1]: 0.600 and 0.686 and 0.609 and 0.632
Sox2.R.V normalized RPPA signal [1]: 1.375 and 1.408 and 0.996 and 1.260
Sox17.R.V normalized RPPA signal [1]: 0.910 and 0.971 and 1.024 and 0.968
Src.M.V normalized RPPA signal [1]: 0.856 and 0.994 and 0.844 and 0.898
Src_pY416.R.V normalized RPPA signal [1]: 0.922 and 0.983 and 0.992
Src_pY527.R.V normalized RPPA signal [1]: 1.101 and 1.696 and 1.289
Stat1_pY701.R.V normalized RPPA signal [1]: 0.978 and 0.992 and 1.003
Stat3.R.C normalized RPPA signal [1]: 0.916 and 0.933 and 0.984 and 0.944
Stat3_pY705.R.C normalized RPPA signal [1]: 1.624 and 1.373 and 1.082 and 1.360
Stat5a.R.V normalized RPPA signal [1]: 0.918 and 1.001 and 1.032
Stathmin.1.R.V normalized RPPA signal [1]: 1.002 and 0.917 and 0.896 and 0.939
Syk.M.V normalized RPPA signal [1]: 0.729 and 0.896 and 0.950 and 0.859
Synaptophysin.R.C normalized RPPA signal [1]: 1.010 and 0.835 and 0.914 and 0.920
TAZ.R.V normalized RPPA signal [1]: 0.593 and 0.609 and 0.746
TEAD.R.C normalized RPPA signal [1]: 0.753 and 0.847 and 1.189 and 0.929
TFAM.R.V normalized RPPA signal [1]: 1.017 and 0.908 and 0.988
TFRC.R.V normalized RPPA signal [1]: 0.954 and 0.936 and 0.905
TIGAR.R.V normalized RPPA signal [1]: 1.016 and 1.029 (2×)
TRAP1.M.V normalized RPPA signal [1]: 0.880 and 0.858 and 0.987 and 0.908
TRIM24.R.C normalized RPPA signal [1]: 0.971 and 1.220 and 0.935
TRIM25.R.C normalized RPPA signal [1]: 0.761 and 0.842 and 1.250
TRIP13.R.V normalized RPPA signal [1]: 0.937 and 1.026 and 0.990 and 0.984
Tau.M.C normalized RPPA signal [1]: 1.361 and 0.904 and 1.112
Transglutaminase.M.V normalized RPPA signal [1]: 0.939 and 1.702 and 2.431 and 1.691
A.Raf.R.V RPPA signal, normalized [2]: 1.150 and 0.931 and 1.016
A.Raf_pS299.R.C RPPA signal, normalized [2]: 0.948 and 1.046 and 0.962 and 0.985
ACC1.R.C RPPA signal, normalized [2]: 0.841 and 0.807 and 0.895
ACC_pS79.R.V RPPA signal, normalized [2]: 1.085 and 0.894 and 1.442 and 1.140
ACLY_pS455.R.V RPPA signal, normalized [2]: 0.968 and 1.117 and 1.143 and 1.076
ACSL1.R.V RPPA signal, normalized [2]: 0.997 and 1.027 and 1.096
ACVRL1.R.C RPPA signal, normalized [2]: 0.959 and 0.966 and 0.988
ADAR1.M.V RPPA signal, normalized [2]: 1.103 and 1.393 and 0.980 and 1.159
ALKBH5.R.V RPPA signal, normalized [2]: 1.265 and 1.161 and 1.050 and 1.159
AMPK.a2_pS345.R.V RPPA signal, normalized [2]: 0.925 and 1.020 and 1.006
AMPKa.R.C RPPA signal, normalized [2]: 0.976 and 1.132 and 1.050
AMPKa_pT172.R.C RPPA signal, normalized [2]: 1.665 and 1.252 and 2.191 and 1.703
AR.R.V RPPA signal, normalized [2]: 1.167 and 0.791 and 1.202 and 1.053
ARID1A.R.C RPPA signal, normalized [2]: 2.135 and 2.023 and 0.945 and 1.701
ASNS.R.V RPPA signal, normalized [2]: 1.259 and 1.098 (2×)
ATM.R.V RPPA signal, normalized [2]: 0.728 and 0.823 and 1.123 and 0.891
ATM_pS1981.R.V RPPA signal, normalized [2]: 0.946 and 1.124 and 1.011 and 1.027
ATP5A.M.C RPPA signal, normalized [2]: 1.004 and 1.426 and 2.191 and 1.541
ATP5H.R.V RPPA signal, normalized [2]: 1.249 and 1.351 and 1.098 and 1.232
ATR.R.V RPPA signal, normalized [2]: 0.925 and 0.998 and 0.989
ATRX.R.C RPPA signal, normalized [2]: 0.884 and 1.433 and 1.198 and 1.172
ATR_pS428.R.C RPPA signal, normalized [2]: 0.919 and 0.961 and 1.020
AceCS1.R.V RPPA signal, normalized [2]: 1.098 and 1.011 and 1.293 and 1.134
Akt1.R.V RPPA signal, normalized [2]: 0.716 and 0.687 and 1.263 and 0.889
Akt1_pS473.R.V RPPA signal, normalized [2]: 0.845 and 0.816 and 0.918
Akt2.R.V RPPA signal, normalized [2]: 0.702 and 0.698 and 0.824
Akt2_pS474.R.C RPPA signal, normalized [2]: 0.820 and 1.141 and 0.958
Akt.R.V RPPA signal, normalized [2]: 0.842 and 0.873 and 1.113 and 0.943
Akt_pS473.R.V RPPA signal, normalized [2]: 0.693 and 1.281 and 1.006
Akt_pT308.R.V RPPA signal, normalized [2]: 1.208 and 0.954 and 1.057
Ambra1_pS52.R.C RPPA signal, normalized [2]: 0.983 and 1.063 and 0.981 and 1.009
Annexin.I.M.V RPPA signal, normalized [2]: 0.955 and 0.906 and 1.304 and 1.055
Annexin.VII.M.V RPPA signal, normalized [2]: 0.988 and 0.859 and 0.972
Atg3.R.V RPPA signal, normalized [2]: 1.054 and 0.860 and 1.003 and 0.972
Atg4B.R.C RPPA signal, normalized [2]: 0.929 and 1.167 and 0.972 and 1.023
Atg5.R.C RPPA signal, normalized [2]: 1.021 and 0.787 and 1.106 and 0.971
Atg7.R.V RPPA signal, normalized [2]: 0.883 and 0.847 and 0.979 and 0.903
Aurora.A.R.C RPPA signal, normalized [2]: 1.019 and 1.110 and 1.013
Aurora.ABC_pT288_pT232_pT198.R.C RPPA signal, normalized [2]: 0.769 and 0.934
Aurora.B.R.V RPPA signal, normalized [2]: 1.525 and 1.546 and 1.302 and 1.458
Axl.R.V RPPA signal, normalized [2]: 0.924 and 0.799 and 1.335 and 1.019
B7.H3.R.C RPPA signal, normalized [2]: 1.111 and 0.745 and 0.965 and 0.940
B7.H4.R.C RPPA signal, normalized [2]: 0.904 and 0.914 and 0.952
B.Raf.R.C RPPA signal, normalized [2]: 0.818 and 0.836 and 1.274 and 0.976
B.Raf_pS445.R.V RPPA signal, normalized [2]: 0.809 and 0.807 and 1.065 and 0.893
BAP1.M.V RPPA signal, normalized [2]: 0.987 and 0.925 and 1.001
BCL2A1.R.V RPPA signal, normalized [2]: 0.937 and 1.262 and 1.127
BMK1.Erk5_pT218_Y220.R.V RPPA signal, normalized [2]: 0.876 and 0.918 and 0.861 and 0.885
BRCA1.M.C RPPA signal, normalized [2]: 1.226 and 1.030 and 1.116
BRD4.R.V RPPA signal, normalized [2]: 1.775 and 1.486 and 0.963 and 1.408
Bad_pS112.R.V RPPA signal, normalized [2]: 1.169
Bak.R.C RPPA signal, normalized [2]: 1.030 and 0.930 and 1.021 and 0.994
